Source: ChEMBL document CHEMBL1201862, “PubChem BioAssay data set” (2004)
Active and inactive are the calls of the source.

Tests used:
[1] = biological target: Luciferin 4-monooxygenase (Photinus pyralis, UniProt P08659); assay: firefly luciferase enzyme inhibitors, dose response, biochemical, luminescence (AID 1891)
[2] = Luminescence Cell-Based Dose Confirmation HTS to Identify Inhibitors of Platelet Dense Granule Release. [Related pubchem assays: 1663 (Primary HTS), 1678 (Summary of Project)]; assay type: functional
H9c2 = assay: cells; assay type: functional, cell-based; details: Rattus norvegicus, H9c2, Myocardium;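 further: confirmatory concentration-response retest of ultra-high-throughput screening hits for modulation of myocardial damage; cell death induced by hydrogen peroxide oxidative stress; compound pretreatment for 60 min then peroxide exposure for 2 h; potency is for protecting the cells against peroxide damage rather than for killing them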
[3] = P. falciparum Dd2 growth inhibitors, dose response, SYBR Green, cherry-picked samples (AID 1159567); assay type: functional, cell-based
Large T antigen = Large T antigen (Simian virus 40, UniProt P03070); assay type: functional, Betapolyomavirus macacae;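 further: Confirmatory-stage PubChem screen for compounds that inhibit SV40 T antigen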
Sequence of Large T antigen (P03070 whole entry): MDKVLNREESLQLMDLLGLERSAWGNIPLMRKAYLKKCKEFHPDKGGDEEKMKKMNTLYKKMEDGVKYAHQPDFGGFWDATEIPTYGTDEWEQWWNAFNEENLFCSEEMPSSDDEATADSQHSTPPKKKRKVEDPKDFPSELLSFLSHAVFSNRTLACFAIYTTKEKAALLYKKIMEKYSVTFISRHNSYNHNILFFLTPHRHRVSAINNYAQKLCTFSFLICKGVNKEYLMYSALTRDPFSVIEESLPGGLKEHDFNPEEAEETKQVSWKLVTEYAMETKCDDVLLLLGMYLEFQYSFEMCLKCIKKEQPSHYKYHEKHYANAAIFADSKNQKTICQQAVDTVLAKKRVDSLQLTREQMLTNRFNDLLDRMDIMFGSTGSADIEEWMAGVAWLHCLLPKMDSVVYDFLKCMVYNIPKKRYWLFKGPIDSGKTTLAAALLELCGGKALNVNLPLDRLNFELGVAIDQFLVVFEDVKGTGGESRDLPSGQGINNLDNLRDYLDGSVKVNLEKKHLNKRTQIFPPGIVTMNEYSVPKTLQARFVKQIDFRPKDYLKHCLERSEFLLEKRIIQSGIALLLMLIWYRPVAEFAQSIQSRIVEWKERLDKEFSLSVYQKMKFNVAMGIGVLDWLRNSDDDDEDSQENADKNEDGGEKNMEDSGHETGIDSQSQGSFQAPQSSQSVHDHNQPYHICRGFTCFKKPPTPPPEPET

Leucine aminopeptidase = biological target: T1, Leucine aminopeptidase (Plasmodium falciparum 3D7, UniProt Q8IL11); assay: P. falciparum M17LAP inhibitors, primary screen, biochemical, fluorogenic H-Leu-NHMec substrate, 1536-well (AID 1619); assay type: functional
T1 sequence (Q8IL11 whole entry): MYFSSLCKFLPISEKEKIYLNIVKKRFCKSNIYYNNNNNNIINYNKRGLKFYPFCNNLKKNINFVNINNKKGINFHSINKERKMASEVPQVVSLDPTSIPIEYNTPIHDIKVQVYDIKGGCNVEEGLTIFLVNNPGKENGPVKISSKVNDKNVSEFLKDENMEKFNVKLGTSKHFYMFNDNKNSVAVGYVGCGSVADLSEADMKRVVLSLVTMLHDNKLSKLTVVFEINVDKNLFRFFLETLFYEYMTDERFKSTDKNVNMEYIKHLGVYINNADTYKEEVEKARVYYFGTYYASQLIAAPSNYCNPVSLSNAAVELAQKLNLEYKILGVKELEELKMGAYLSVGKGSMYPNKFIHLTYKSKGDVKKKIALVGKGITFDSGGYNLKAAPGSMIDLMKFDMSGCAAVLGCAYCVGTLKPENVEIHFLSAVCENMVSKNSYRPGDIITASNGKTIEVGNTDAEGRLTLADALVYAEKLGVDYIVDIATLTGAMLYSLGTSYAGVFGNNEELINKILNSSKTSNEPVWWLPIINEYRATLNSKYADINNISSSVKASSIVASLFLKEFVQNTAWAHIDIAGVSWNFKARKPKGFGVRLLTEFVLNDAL

cells = assay type: functional
[4] = intracellular Trypanosoma cruzi inhibitors in host cells – cell-based, plate reader, cherry-pick samples, set 3, dose response (AID 651818); assay type: functional;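 further: compounds incubated with infected cells for about four days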
Estrogen receptor = biological target: T2, Estrogen receptor (Homo sapiens, UniProt P03372);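 further: potency for inhibiting coactivator peptide recruitment to the receptor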
T2 sequence (P03372 whole entry): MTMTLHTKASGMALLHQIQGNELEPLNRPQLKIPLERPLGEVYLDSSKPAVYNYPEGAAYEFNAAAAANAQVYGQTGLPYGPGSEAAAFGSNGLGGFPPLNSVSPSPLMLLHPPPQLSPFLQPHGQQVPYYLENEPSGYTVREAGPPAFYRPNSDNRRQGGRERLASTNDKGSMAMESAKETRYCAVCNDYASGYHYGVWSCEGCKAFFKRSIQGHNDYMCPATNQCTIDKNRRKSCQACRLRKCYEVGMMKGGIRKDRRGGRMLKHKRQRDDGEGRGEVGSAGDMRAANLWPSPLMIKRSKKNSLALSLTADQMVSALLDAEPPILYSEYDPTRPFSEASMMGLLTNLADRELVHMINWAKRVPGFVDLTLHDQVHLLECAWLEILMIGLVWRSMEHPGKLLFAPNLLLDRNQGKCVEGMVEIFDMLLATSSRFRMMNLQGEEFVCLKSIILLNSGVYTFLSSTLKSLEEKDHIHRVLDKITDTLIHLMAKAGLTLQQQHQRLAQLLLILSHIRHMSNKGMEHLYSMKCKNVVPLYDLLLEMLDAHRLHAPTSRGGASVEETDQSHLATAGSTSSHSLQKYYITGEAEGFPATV

Cytochrome P450 2D6 = Cytochrome P450 2D6 (Homo sapiens, UniProt P10635);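 further: CYP2D6 member of a cytochrome P450 panel assay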
Sequence of Cytochrome P450 2D6 (P10635 whole entry): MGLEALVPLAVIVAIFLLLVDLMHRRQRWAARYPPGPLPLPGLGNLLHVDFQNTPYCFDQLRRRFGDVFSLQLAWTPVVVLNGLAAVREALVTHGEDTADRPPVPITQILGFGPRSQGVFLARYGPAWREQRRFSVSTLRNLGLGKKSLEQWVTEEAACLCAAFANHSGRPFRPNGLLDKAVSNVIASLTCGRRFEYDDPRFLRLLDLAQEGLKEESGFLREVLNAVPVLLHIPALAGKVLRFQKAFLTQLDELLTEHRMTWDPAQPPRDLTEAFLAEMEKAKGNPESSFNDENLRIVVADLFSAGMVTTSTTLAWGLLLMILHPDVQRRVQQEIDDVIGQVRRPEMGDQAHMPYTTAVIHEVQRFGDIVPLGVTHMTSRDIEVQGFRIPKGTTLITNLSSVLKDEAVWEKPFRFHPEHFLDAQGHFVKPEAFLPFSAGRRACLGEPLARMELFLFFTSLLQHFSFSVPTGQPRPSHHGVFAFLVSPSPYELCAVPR

Protein skinhead-1 = biological target: T3, Protein skinhead-1 (Caenorhabditis elegans, UniProt P34707); assay type: functional
T3 sequence (P34707 whole entry): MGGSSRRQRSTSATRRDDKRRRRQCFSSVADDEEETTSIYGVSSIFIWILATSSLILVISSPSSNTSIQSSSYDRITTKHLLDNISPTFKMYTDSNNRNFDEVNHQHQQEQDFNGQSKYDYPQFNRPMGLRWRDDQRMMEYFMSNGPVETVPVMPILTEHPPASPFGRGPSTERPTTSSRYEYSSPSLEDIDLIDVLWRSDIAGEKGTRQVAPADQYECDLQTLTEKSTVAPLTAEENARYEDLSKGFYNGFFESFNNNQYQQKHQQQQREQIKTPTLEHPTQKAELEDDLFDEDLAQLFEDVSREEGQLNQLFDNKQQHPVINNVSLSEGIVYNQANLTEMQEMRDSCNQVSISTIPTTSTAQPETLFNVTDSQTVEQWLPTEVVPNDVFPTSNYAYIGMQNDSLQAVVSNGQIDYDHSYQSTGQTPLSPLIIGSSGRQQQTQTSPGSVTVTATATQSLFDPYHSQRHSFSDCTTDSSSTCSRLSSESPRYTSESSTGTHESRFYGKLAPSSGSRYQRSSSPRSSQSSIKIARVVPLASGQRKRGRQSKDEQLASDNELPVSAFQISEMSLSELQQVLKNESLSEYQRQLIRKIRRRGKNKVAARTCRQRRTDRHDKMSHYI

BJ [5] = assay: cells; assay type: functional, cell-based; details: Homo sapiens
[6] = cytotoxicity toward DRD oncogenic fibroblasts, dose response, cell-based, non-viral oncogenic, luminescence (AID 1934); assay type: functional; details: Homo sapiens
BJ [7] = assay: cytotoxicity toward BJ-TERT-LT-ST fibroblasts, dose response, cell-based, RAS-independent, luminescence (AID 1935); assay type: functional; details: Homo sapiens;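 further: BJ fibroblasts immortalized with TERT plus LT and ST oncogenes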
BJ [8] = assay: cytotoxicity toward BJ-TERT fibroblasts, dose response, cell-based, RAS-independent, luminescence (AID 1933); assay type: functional; details: Homo sapiens
[9] = Luminescence Cell-Based Dose Response HTS to Identify Activators of Luciferase Translation or Activity in H4 […] Cells. [Related pubchem assays: 1829 (Project Summary), 1814 (Primary HTS)]; assay type: functional
[10] = Luminescence Cell-Based Dose Confirmation HTS to Identify Activators of 5'UTR Stem-Loop Driven Alpha-Synuclein mRNA Translation in H4 Neuroglioblastoma Cells. [Related pubchem assays: 1829 (Project Summary), 1814 (Primary HTS)]; assay type: functional
H4 = assay: Luminescence Cell-Based Dose Response HTS to Identify Activators of 5'UTR Stem-Loop Driven Prion Protein mRNA Translation in H4 Neuroglioblastoma Cells. [Related pubchem assays: 1829 (Project Summary), 1814 (Primary HTS)]; assay type: functional; details: Homo sapiens
Paired box protein Pax-8 = Paired box protein Pax-8 (Homo sapiens, UniProt Q06710); assay: inhibitors of PAX8-driven TPO luciferase reporter, dose response, RMG-I cells, cherry-pick (AID 687027); assay type: functional, cell-based;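 further: luciferase reporter driven by Pax8 target thyroperoxidase promoter measured by SteadyGlo luminescence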
Sequence of Paired box protein Pax-8 (Q06710 whole entry): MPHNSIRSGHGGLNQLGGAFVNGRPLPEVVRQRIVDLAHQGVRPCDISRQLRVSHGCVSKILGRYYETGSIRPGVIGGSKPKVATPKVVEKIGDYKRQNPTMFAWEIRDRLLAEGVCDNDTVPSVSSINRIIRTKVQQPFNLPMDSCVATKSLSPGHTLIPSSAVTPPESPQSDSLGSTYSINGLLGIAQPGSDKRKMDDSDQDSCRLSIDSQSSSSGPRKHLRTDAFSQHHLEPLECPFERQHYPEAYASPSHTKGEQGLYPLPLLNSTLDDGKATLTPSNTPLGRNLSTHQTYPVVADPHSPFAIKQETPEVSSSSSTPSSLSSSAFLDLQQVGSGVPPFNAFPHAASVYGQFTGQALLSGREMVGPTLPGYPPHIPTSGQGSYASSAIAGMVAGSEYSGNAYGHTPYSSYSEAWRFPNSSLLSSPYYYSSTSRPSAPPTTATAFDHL

[11] = biological target: Glyceraldehyde-3-phosphate dehydrogenase (Homo sapiens, UniProt P04406)
Sequence of Glyceraldehyde-3-phosphate dehydrogenase (P04406 whole entry, the tested form may be a part): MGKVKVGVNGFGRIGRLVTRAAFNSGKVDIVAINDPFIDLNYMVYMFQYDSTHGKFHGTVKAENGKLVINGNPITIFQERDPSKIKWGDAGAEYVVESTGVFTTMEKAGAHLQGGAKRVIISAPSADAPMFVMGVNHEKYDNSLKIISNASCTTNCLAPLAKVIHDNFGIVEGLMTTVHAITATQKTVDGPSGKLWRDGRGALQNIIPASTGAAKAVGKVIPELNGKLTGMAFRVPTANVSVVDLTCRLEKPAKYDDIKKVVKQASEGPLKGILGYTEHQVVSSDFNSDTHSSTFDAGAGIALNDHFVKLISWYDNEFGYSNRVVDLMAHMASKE

Fatty acid synthase [12] = biological target: T4, Fatty acid synthase (Homo sapiens, UniProt P49327); assay: FAS thioesterase domain inhibitors, dose response, biochemical, kinetic fluorescence intensity (AID 624326); assay type: functional;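 further: rate of fluorescence rise from hydrolysis of a fluorogenic O-methyl fluorescein ester substrate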
T4 sequence (P49327 whole entry, the tested form may be a part): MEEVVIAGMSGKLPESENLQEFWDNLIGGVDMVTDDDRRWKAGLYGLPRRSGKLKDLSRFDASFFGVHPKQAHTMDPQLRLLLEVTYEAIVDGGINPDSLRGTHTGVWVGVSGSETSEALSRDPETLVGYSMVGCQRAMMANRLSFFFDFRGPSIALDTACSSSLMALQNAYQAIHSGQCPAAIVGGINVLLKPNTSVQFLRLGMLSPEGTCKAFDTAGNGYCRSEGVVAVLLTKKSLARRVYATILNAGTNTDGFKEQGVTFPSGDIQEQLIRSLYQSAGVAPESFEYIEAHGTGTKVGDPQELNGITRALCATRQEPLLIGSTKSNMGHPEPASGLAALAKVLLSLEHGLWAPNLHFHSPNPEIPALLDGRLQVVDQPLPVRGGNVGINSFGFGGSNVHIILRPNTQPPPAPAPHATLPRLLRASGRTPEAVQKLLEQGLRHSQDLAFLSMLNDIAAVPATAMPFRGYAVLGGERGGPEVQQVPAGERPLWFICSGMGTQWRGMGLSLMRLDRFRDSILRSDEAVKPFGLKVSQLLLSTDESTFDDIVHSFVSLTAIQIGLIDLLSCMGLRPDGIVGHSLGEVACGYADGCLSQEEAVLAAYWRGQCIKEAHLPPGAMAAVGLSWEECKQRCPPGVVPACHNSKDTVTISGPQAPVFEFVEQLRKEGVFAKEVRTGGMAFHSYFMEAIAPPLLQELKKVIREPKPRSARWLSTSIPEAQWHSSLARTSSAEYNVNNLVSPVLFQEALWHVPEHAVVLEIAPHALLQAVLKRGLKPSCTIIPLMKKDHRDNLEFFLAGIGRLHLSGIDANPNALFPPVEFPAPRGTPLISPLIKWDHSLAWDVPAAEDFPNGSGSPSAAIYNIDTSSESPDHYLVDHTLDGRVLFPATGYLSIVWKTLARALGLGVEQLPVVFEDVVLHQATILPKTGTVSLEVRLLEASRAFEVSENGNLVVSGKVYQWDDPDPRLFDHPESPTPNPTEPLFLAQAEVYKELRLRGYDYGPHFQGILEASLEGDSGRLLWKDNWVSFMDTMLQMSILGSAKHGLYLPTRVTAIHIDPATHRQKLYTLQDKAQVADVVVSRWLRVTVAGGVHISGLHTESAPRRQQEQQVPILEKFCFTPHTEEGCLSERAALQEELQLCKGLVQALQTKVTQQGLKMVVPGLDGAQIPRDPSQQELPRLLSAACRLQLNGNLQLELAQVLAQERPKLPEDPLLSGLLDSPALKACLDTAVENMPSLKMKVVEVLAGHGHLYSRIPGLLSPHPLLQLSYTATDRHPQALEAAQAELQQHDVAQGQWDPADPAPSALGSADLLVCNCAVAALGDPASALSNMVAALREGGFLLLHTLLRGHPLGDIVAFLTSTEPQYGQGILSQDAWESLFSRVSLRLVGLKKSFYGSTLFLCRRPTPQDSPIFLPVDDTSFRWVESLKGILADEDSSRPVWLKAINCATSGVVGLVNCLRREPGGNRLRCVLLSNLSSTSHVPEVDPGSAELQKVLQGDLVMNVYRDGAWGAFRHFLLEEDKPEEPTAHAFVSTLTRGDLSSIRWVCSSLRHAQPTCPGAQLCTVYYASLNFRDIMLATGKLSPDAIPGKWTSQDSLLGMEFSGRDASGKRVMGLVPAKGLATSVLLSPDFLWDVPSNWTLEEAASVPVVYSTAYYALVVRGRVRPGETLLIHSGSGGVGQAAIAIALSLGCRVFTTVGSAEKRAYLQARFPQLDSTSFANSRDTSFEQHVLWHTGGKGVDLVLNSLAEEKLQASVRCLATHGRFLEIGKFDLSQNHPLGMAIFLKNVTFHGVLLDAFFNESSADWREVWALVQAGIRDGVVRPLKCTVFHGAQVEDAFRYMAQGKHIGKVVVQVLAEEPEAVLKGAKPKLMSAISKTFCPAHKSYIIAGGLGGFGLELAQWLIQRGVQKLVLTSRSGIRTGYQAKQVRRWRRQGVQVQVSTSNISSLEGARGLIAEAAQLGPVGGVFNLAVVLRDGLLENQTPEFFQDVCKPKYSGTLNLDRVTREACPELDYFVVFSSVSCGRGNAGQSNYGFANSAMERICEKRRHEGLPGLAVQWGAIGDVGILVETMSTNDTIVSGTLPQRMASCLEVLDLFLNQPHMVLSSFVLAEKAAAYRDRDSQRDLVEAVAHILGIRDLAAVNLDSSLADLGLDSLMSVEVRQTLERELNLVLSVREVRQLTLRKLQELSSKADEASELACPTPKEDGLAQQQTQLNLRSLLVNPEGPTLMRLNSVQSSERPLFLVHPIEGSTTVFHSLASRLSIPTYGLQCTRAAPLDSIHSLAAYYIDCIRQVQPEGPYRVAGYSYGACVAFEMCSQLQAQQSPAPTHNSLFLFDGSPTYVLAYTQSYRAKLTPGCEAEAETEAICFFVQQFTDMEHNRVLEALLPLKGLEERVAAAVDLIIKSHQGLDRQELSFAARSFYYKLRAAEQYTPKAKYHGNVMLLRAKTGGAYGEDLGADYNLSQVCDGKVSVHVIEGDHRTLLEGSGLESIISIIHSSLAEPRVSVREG

Fatty acid synthase [13] = biological target: T4, Fatty acid synthase; assay: FAS thioesterase domain inhibitors, dose response, biochemical, endpoint fluorescence intensity, uHTS hits (AID 624327); assay type: functional;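 further: fluorescence from hydrolysis of an O-methyl fluorescein acyl ester substrate by the enzyme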
Vero = assay: cells; assay type: functional; details: Chlorocebus sabaeus

Sequence of Luciferin 4-monooxygenase (P08659 whole entry): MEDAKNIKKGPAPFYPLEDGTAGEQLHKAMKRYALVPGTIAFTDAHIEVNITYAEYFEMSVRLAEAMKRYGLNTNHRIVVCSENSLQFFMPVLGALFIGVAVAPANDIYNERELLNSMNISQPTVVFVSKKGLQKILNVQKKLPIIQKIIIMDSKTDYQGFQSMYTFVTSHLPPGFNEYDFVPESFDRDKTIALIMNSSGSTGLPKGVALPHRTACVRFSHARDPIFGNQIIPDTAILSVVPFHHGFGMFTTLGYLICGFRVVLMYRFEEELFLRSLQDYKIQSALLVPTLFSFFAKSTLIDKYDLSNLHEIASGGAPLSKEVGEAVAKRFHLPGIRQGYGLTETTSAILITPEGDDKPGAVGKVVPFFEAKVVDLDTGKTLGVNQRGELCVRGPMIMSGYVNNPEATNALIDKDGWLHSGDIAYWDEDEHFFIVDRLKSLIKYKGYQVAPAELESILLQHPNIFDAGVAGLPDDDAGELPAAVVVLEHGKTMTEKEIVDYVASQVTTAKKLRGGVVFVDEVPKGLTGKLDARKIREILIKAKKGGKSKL

O=C(CN(CCN1CCOCC1)C(=O)Cn1nnc(-c2ccc(F)cc2)n1)NC1CCCCC1
EC50 [1]: > 112 µM (not active)
EC50 [2]: > 112 µM (not active)

O=C1c2ccccc2C(=O)N1CCCCSc1nc2ccccc2c(=O)n1CCCN1CCOCC1
IC50 (H9c2): 10.1 µM (active)

C[C@H](CO)N1C[C@H](C)[C@@H](CN(C)C(=O)Nc2ccc(F)cc2)Oc2ccc(NC(=O)Nc3ccc(C(F)(F)F)cc3)cc2CC1=O
AC50 [3]: 3.77 µM (active)

COc1ccc(OCC(=O)Nc2ccc3c(c2)nc(CN2CCCC2)n3C)cc1
EC50 [1]: > 112 µM (not active)
EC50 [2]: > 112 µM (not active)

COc1cc(OC)c(C2CC(=O)N3CN(c4ccc(C)cc4)CSC3=C2C#N)cc1OC (centres undefined)
IC50 (Large T antigen): 43.4 µM (active)

O=C(Nc1ccccc1C(=O)Nc1ccccc1C(=O)NCc1ccco1)c1ccco1
IC50 (H9c2): > 79 µM (inactive)

CCc1nnc(NC(=O)C(C)Sc2ccccc2)s1 (centres undefined)
IC50 (Leucine aminopeptidase): 3.57 µM (active)

COc1ccc(C(=O)COC(=O)c2ccc(Cl)nc2)c(OC)c1
IC50 (cells): 13.2 µM (active)

CCOC(=O)c1c(C)oc2ccc(NS(=O)(=O)c3ccc(C(=O)O)cc3)cc12
IC50 (Leucine aminopeptidase): 43.9 µM (active)

C[C@@H]1CCCCO[C@H](CN(C)C(=O)Nc2ccc(C(F)(F)F)cc2)[C@@H](C)CN([C@H](C)CO)C(=O)c2cc(NC(=O)Cc3ccccc3)ccc2O1
AC50 [4]: 1.78 µM (active)

Cc1nn(-c2ccccc2)c2sc(C(=O)OCN3C(=O)c4ccccc4C3=O)cc12
IC50 (Estrogen receptor): 9.75 µM (active)

Cc1sc(NC(=O)c2ccco2)c(C(c2cccnc2)N2CCCC2)c1C (centres undefined)
AC50 (Cytochrome P450 2D6): 10 µM (inconclusive)
IC50 (Protein skinhead-1): > 100 µM (inactive)

COc1ccc(C(=O)c2ccc(N3CCOCC3)c([N+](=O)[O-])c2)cc1
EC50 (BJ [5]): > 150 µM (not active)
EC50 [6]: > 150 µM (not active)
EC50 (BJ [7]): > 150 µM (not active)
EC50 (BJ [8]): > 150 µM (not active)

CN1CCc2c(sc3nc(SCC(=O)N4CCCCC4)n(-c4ccccc4)c(=O)c23)C1
EC50 [1]: > 112 µM (not active)
EC50 [2]: 12.9 µM (active)

COc1cc(/C=C2/C(=N)N3C=CSC3=NC2=O)ccc1OCCCOc1ccccc1C
EC50 [9]: 58.3 µM (active)
EC50 [10]: 5.59 µM (active)
IC50 (Estrogen receptor): > 50 µM (not active)
EC50 (H4): 70.8 µM (active)

C[C@@H]1CN([C@H](C)CO)C(=O)Cc2cc(NS(=O)(=O)c3ccccc3)ccc2O[C@@H]1CN(C)S(=O)(=O)c1ccc(Cl)cc1
AC50 (Paired box protein Pax-8): 35.5 µM (active)
AC50 [4]: 2.08 µM (active)

N#Cc1c(-c2ccccc2)cc(-c2ccco2)c(C#N)c1N
IC50 (Estrogen receptor): 33.5 µM (not active)

CCOC(=O)c1cccc(NC(=O)CN2C(=O)C3C4C=CC(C4)C3C2=O)c1 (centres undefined)
IC50 (Leucine aminopeptidase): 14.2 µM (active)

COc1ccc(NC(=O)Nc2ccc3c(c2)CC(=O)N([C@H](C)CO)C[C@@H](C)[C@@H](CN(C)Cc2ccc(C(F)(F)F)cc2)O3)cc1
AC50 [4]: 3.52 µM (active)

CC(=O)N1CC2(C1)[C@@H](c1ccc(-c3cccc(F)c3)cc1)[C@@H](CO)N2CC1CCCC1
AC50 [3]: 6.15 µM (active)

O=C(Nc1cccc(C(=O)O)c1)/C(=C\c1ccc2c(c1)OCO2)NC(=O)c1ccc(Br)o1
IC50 (Leucine aminopeptidase): 65 µM (active)

COc1cccc(N2C(=O)C(Cl)=C(N3CCN(Cc4ccc5c(c4)OCO5)CC3)C2=O)c1
IC50 [11]: > 50 µM (inconclusive)

O=C(Nc1nccs1)c1ccc2ccccc2n1
IC50 (Protein skinhead-1): 21.3 µM (active)

CN(C)C(=O)CN1C(=O)NC2(CCc3ccccc32)C1=O (centres undefined)
IC50 (Protein skinhead-1): > 100 µM (inactive)

O=C(COC(=O)CCC(=O)c1ccc(F)cc1)Nc1cccc(S(=O)(=O)N2CCCC2)c1
EC50 [1]: > 112 µM (not active)
EC50 [2]: 15.5 µM (active)

C[C@H]1CN([C@@H](C)CO)C(=O)Cc2cc(NC(=O)Nc3ccc(C(F)(F)F)cc3)ccc2O[C@H]1CN(C)CC1CCCCC1
AC50 [4]: 3.6 µM (active)

O=C1C(C2=NC(C(=O)O)C3C(=O)N(c4ccccc4)C(=O)C23)=C(O)c2ccccc21 (centres undefined)
IC50 (Leucine aminopeptidase): 68 µM (active)

CCOc1cc(/C=N/NC(=O)c2ccccn2)ccc1OC(=O)c1cccs1
IC50 (cells): 26.5 µM (active)

COc1ccc2c3c([nH]c2c1)[C@H](CO)N(Cc1cc(F)ccc1F)CC31CCN(C(=O)C2CCC2)CC1
AC50 [3]: 3.36 µM (active)

CCOc1ccc(N(CC(=O)N/N=C/c2ccccn2)S(=O)(=O)c2ccc(Cl)cc2)cc1
IC50 (Fatty acid synthase [12]): 5.79 µM (active)
IC50 (Fatty acid synthase [13]): 10.6 µM (active)
IC50 (H9c2): > 79 µM (inactive)

N#CCCn1c(SCC(=O)c2c[nH]c3ccccc23)nc2ccccc21
IC50 (H9c2): > 79 µM (inactive)

O=C(CCCCCn1nnc2ccccc2c1=O)N[C@H](C(=O)O)c1ccccc1
EC50 [1]: > 112 µM (not active)
EC50 [2]: > 112 µM (not active)

CN(C)c1ccc(NC(=O)C(=O)C2C(=O)Nc3ccccc32)cc1 (centres undefined)
IC50 (Large T antigen): 25.9 µM (active)

Cc1cc(C)nc(NN=CC2=C(N3CCOCC3)/C(=C/c3ccc(Cl)cc3)CC2)n1
CC50 (Vero): > 25 µM (active)

COc1cc(C(=O)Nc2nc(C)c(Cc3ccc4c(c3)OCO4)s2)cc(OC)c1OC
EC50 (BJ [5]): 133 µM (active)
EC50 [6]: 2.04 µM (active)
EC50 (BJ [7]): 1.68 µM (active)
EC50 (BJ [8]): 2.49 µM (active)

O=C(Nc1ccc2snnc2c1)N1CCSCC1
IC50 (Protein skinhead-1): > 100 µM (inactive)

CC1CCCN(C(=O)COC(=O)c2n[nH]c3ccccc23)C1 (centres undefined)
IC50 (Estrogen receptor): > 50 µM (not active)

O=C(Nc1cccc(F)c1)N[C@@H]1CC[C@@H](CCNS(=O)(=O)c2cccc(Cl)c2)O[C@@H]1CO
AC50 (Paired box protein Pax-8): 42.7 µM (active)
AC50 [3]: 18.6 µM (active)

Cc1cc(N2CCCCC2)ccc1C=C1C(=O)N(C)C(=S)N(C)C1=O
IC50 (Leucine aminopeptidase): 40.9 µM (active)

C[C@@H]1CN([C@@H](C)CO)C(=O)Cc2cc(NC(=O)Nc3ccc4c(c3)OCO4)ccc2O[C@@H]1CN(C)Cc1ccc(C(=O)Nc2ccccc2N)cc1
AC50 [4]: 2.38 µM (active)
